Data on 10 compounds can be found in patent US20240279233A1, “MACROCYCLIC TAK1 INHIBITORS” (Aqilion AB, priority 2021, published 2024).

By IC50 is commonly meant the concentration that inhibits the measured activity by half.

Chain of human recombinant TAK1-TAB1 Kinase (TAK1 (1-303) and TAB1 (437-end)) (O43318 other isoform, or with tags, fused parts or gaps): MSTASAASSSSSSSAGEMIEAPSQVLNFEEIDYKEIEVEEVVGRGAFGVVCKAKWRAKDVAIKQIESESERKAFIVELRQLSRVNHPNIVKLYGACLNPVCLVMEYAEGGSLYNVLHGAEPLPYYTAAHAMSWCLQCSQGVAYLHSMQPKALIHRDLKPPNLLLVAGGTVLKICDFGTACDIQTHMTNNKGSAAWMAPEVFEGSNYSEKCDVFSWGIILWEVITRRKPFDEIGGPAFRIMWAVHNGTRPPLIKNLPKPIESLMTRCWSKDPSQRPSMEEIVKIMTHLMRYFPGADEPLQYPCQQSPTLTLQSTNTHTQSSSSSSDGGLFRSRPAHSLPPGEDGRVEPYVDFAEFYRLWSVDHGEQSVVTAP

This assay concerns the target human recombinant TAK1-TAB1 Kinase (TAK1 (1-303) and TAB1 (437-end)) (Homo sapiens (Human), UniProt O43318). Nature of the assay: TAK1 biochemical ADP-Glo kinase assay. Particulars: 10 μM ATP, MBP substrate; read-out: TAK1 Mean IC50 (nM) @ 10 μM ATP. On the procedure: The usefulness of the example compounds of the invention as TAK1 inhibitors was evaluated in a biochemical ADP-Glo kinase assay. Assay kits from Promega Corporation V4089 were used according to manufacturer's instructions and adapted as outlined here. ADP-Glo Kinase Assay kit contains ADP-Glo Reagent, Kinase Detection Reagent, kinase detection buffer, ATP, and ADP. The Kinase Enzyme Systems include human recombinant TAK1-TAB1 Kinase (TAK1 (1-303) and TAB1 (437-end)), Native Swine Myelin Basic Protein (MBP) substrate, 5×kinase reaction buffer, and DTT.
Test compounds were prepared in 1:5 serial dilutions at 8 concentrations in DMSO from 10 mM stock solutions. An additional 20-fold dilution in 1× kinase reaction buffer (see below) was performed, yielding a final dilution series in kinase buffer with 5% DMSO (final concentration in assay from 20 μM to 0.26 nM, 1% DMSO). As controls, Takinib was prepared as positive control (3 μM final in assay), and DMSO without inhibitor served as negative control, at a final assay concentration of DMSO of 1%.
One μl of compound solution in 5% DMSO was added to each well in a 384 well microtiter plate (OptiPlate #6007290). Two μl TAK1-TAB1 (7.5 ng/μl) in lxkinase reaction buffer ([…] Tris base pH 7.5, 20 mM MgCl2, 50 μM DTT, 0.1 mg/ml BSA) was added and pre-incubated 10 min before adding 2 μl of a mixture of MBP substrate and ATP (0.25 μg/μL MBP/25 μM ATP or 0.25 μg/μL MBP/2.5 mM ATP) in 1× kinase reaction buffer (as above). The plate was subsequently incubated at room temperature for 1 hour. Then 5 μl ADP-Glo™ reagent from ADP-Glo™ kit (as above) was added and incubated for 40 min to stop the reaction and consume remaining ATP. Ten μl kinase detection substrate (dissolved in kinase detection buffer, both from ADP-Glo™ kit as above) was then added to convert ADP to ATP and detect ATP with luciferase/luciferin. The plate was incubated for 30 minutes at room temperature in dark before reading luminescence on an Envision (PerkinElmer) reader.
IC50 values of compounds of the invention were determined by the non-linear regression analysis of dose response curves.
On the technique in general: ADP-Glo first removes unused ATP, then detects ADP through luciferase.
Consider `CC1CCCCNC(=O)c2cccc(c2)C(=O)/N=C2\Nc3cccc(C(=O)N4CC(F)(F)C4)c3N21` (stereo not shown) [Example 40, (E)-1^7-(3,3-difluoroazetidine-1-carbonyl)-11-methyl-1^2,1^3-dihydro-1^1H-2,6-diaza-1(2,1)-benzo[d]imidazola-4(1,3)-benzenacycloundecaphane-3,5-dione], for which the IC50 was 3 nM.
In the case of `CC1CCCCNC(=O)c2cccc(c2)C(=O)/N=C2\Nc3cccc(C(=O)N(C)C4CC(O)C4)c3N21` (stereo not shown) [Example 41, (E)-N-(3-hydroxycyclobutyl)-N,11-dimethyl-3,5-dioxo-1^2,1^3-dihydro-1^1H-2,6-diaza-1(2,1)-benzo[d]imidazola-4(1,3)-benzenacycloundecaphane-1^7-carboxamide], the IC50 turned out to be 3 nM.
In the case of `CC1CCCCNC(=O)c2cccc(c2)C(=O)/N=C2\Nc3cccc(C(=O)N4CC5(COC5)C4)c3N21` (stereo not shown) [Example 42, (E)-11-methyl-1^7-(2-oxa-6-azaspiro[3.3]heptane-6-carbonyl)-1^2,1^3-dihydro-1^1H-2,6-diaza-1(2,1)-benzo[d]imidazola-4(1,3)-benzenacycloundecaphane-3,5-dione], the concentration for half-maximal inhibition (IC50) came out at 7 nM.
Under `CC1CCCNC(=O)c2cccc(c2)C(=O)Nc2nc3cccc(C(=O)N(C)C)c3n2C1` (stereo not shown) [Example 51, (E)-N,N,10-trimethyl-3,5-dioxo-1^2,1^3-dihydro-1^1H-2,6-diaza-1(2,1)-benzo[d]imidazola-4(1,3)-benzenacycloundecaphane-1^7-carboxamide] stands 136 nM.
Under `CC1CCCNC(=O)c2cccc(c2)C(=O)Nc2nc3cccc(C(=O)N(C)C)c3n2C1` (stereo not shown) [Example 52, (E)-N,N,10-trimethyl-3,5-dioxo-1^2,1^3-dihydro-1^1H-2,6-diaza-1(2,1)-benzo[d]imidazola-4(1,3)-benzenacycloundecaphane-1^7-carboxamide] stands 63 nM; under `C[C@@H]1CCCCNC(=O)c2cccc(c2)C(=O)Nc2nc3cccc(-c4ncn(C)n4)c3n21` [Example 83, (R)-11-methyl-1^7-(1-methyl-1H-1,2,4-triazol-3-yl)-1^1H-2,6-diaza-1(2,1)-benzo[d]imidazola-4(1,3)-benzenacycloundecaphane-3,5-dione], 6 nM; under `C[C@@H]1CCCCNC(=O)c2cccc(c2)C(=O)Nc2nc3cccc(-c4ncnn4C)c3n21` [Example 85, (R,E)-11-methyl-1^7-(1-methyl-1H-1,2,4-triazol-5-yl)-1^1H-2,6-diaza-1(2,1)-benzo[d]imidazola-4(1,3)-benzenacycloundecaphane-3,5-dione], 3 nM.
Under `CC1CCCCNC(=O)c2cccc(c2)C(=O)Nc2nc3cccc(-c4nccn4C(F)F)c3n21` (stereo not shown) [Example 90, (E)-1^7-(1-(difluoromethyl)-1H-imidazol-2-yl)-11-methyl-1^2,1^3-dihydro-1^1H-2,6-diaza-1(2,1)-benzo[d]imidazola-4(1,3)-benzenacycloundecaphane-3,5-dione] stands 6 nM.
For the compound `C[C@@H]1CCCCNC(=O)c2cccc(c2)C(=O)/N=C2\Nc3cccc(C(=O)N4CC(C)(O)C4)c3N21` [Example 94, (R,E)-1^7-(3-hydroxy-3-methylazetidine-1-carbonyl)-11-methyl-1^2,1^3-dihydro-1^1H-2,6-diaza-1(2,1)-benzo[d]imidazola-4(1,3)-benzenacycloundecaphane-3,5-dione], the IC50 came out at 5 nM.
Under `C[C@H]1CCCCNC(=O)c2cccc(c2)C(=O)/N=C2\Nc3cccc(C(=O)N4CC(C)(O)C4)c3N21` [Example 95, (S,E)-1^7-(3-hydroxy-3-methylazetidine-1-carbonyl)-11-methyl-1^2,1^3-dihydro-1^1H-2,6-diaza-1(2,1)-benzo[d]imidazola-4(1,3)-benzenacycloundecaphane-3,5-dione] stands 6 nM.
